Experimental findings from ChEMBL document CHEMBL1151704, “Nicotinic acid receptor agonists” (J Med Chem, 2008) are described below.

For one data set, the species on record is Rattus norvegicus. Kind of data set: Reduction of plasma free fatty acid in Sprague-Dawley rat. The data set is classed as functional.
Data set [1] in a line: Therapeutic index, ratio of ED50 for plasma free fatty acid in Sprague-Dawley rat to ED50 for vasodilation in mouse. The following applies: read-out: Ratio ED50.
The target of data set [2] is Hydroxycarboxylic acid receptor 2 (Homo sapiens, UniProt Q8TDS4). Kind of data set: Activity at GPR109a assessed as inhibition of forskolin-stimulated cAMP production. The data set is classed as functional. In general terms: Cyclic AMP is a second messenger, typically raised through Gs and lowered through Gi signalling.
The target in data set [3] is Hydroxycarboxylic acid receptor 3 (Homo sapiens, UniProt P49019). The data set can be described thus: Activity at GPR109b assessed as inhibition of forskolin-stimulated cAMP production. The data set is classed as functional.
Sequence of Hydroxycarboxylic acid receptor 3 (P49019 whole entry): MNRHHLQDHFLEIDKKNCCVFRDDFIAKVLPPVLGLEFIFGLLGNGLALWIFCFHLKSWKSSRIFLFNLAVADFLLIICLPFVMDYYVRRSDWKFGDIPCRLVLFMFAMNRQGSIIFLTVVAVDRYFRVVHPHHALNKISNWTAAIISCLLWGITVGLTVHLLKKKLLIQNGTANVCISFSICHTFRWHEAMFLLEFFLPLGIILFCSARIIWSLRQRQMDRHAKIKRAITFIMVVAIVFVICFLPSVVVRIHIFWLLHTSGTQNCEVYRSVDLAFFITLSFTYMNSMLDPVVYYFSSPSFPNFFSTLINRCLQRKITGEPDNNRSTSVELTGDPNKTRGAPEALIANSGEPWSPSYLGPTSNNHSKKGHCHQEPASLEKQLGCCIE

Sequence of Hydroxycarboxylic acid receptor 2 (Q8TDS4 whole entry): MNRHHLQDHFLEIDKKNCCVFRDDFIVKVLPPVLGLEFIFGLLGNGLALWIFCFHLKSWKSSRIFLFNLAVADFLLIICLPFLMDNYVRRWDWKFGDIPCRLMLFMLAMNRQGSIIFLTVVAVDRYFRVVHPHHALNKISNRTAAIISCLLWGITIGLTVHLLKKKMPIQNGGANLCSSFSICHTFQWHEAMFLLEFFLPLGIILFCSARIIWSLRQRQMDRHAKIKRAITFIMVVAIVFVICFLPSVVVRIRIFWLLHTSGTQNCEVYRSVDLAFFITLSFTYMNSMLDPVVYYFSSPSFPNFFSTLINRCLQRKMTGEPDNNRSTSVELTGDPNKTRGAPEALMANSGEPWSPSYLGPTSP

Regarding `O=C(CCc1nc(-c2ccc(O)cn2)no1)Nc1ccccc1C(=O)O`, the ED50 (commonly the dose at which the effect has come halfway, by size or by number of responders) in the data set listed under Rattus norvegicus was determined as 9 mg/kg. The selectivity ratio in data set [1] was above 70. Consider `CC(C)n1nnc2cc(C(=O)O)ccc21`, for which the EC50 (usually the concentration that produces a half-maximal response) in data set [2] was determined as 400 nM. Take `O=C(CCc1nc(-c2ccc(O)cc2)no1)Nc1ccccc1C(=O)O`: the ED50 in the data set filed under Rattus norvegicus was determined as 9 mg/kg. For the same molecule, the selectivity ratio in data set [1] was above 70. With `CC1(c2ccccc2)OC(C(=O)O)=CC1=O` (configuration not stated) [ACIFRAN], the IC50 (as a rule, the midpoint of a concentration-inhibition curve) in data set [2] stood at 500 nM; in data set [3], 3000 nM.
